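How tested: cells in 96-well plates exposed to compound for 48 hours at five concentrations. GI50 is the concentration that inhibits growth by half. TGI: concentration producing complete growth inhibition.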

The values that follow come from PubChem BioAssay (NCI).

Among the test systems are A498 renal; HCT-15 colon; SK-MEL-28 melanoma; UO-31 renal; A549 NSCLC; NCI-H460 lung; NCI-H23 lung; CAKI-1 renal; HS 578T breast; BT-549 breast.
Holding throughout (assay): DTP human tumour cell line panel, 48 h

For `Cc1cccc(C)c1NC(=O)C(=O)Cc1nc2ccccc2s1`, the TGI in the assay on A498 renal, in the assay on HCT-15 colon, in the assay on SK-MEL-28 melanoma, in the assay with UO-31 renal, with A549 NSCLC and with NCI-H460 lung was more than 100 µM throughout. Besides, the TGI in the assay with NCI-H23 lung and in the assay on CAKI-1 renal was more than 100 µM each time.
Turning to `O=C(CC1=Nc2nnc(CCCCCCCc3nnc4n3C(=O)C(CC(=O)c3ccc5ccccc5c3)=N4)n2C1=O)c1ccc2ccccc2c1`, the TGI in the assay with HCT-15 colon, in the assay with SK-MEL-28 melanoma, with UO-31 renal, with A549 NSCLC, with NCI-H460 lung and in the assay on NCI-H23 lung was more than 100 µM throughout. In the assay with CAKI-1 renal, this molecule yielded a concentration for total growth inhibition (TGI) of more than 100 µM.
Take `Cc1cc(Cl)ccc1NC(=O)CCCC(=O)C1C/C(=N/O)CC/C1=N\O` (stereo not given): the TGI in the assay with A498 renal, in the assay with HCT-15 colon, with SK-MEL-28 melanoma, with UO-31 renal, in the assay on A549 NSCLC and in the assay with NCI-H460 lung was more than 100 µM each time. Moreover, the TGI with NCI-H23 lung and in the assay on CAKI-1 renal was more than 100 µM each time.
For the molecule `COC1(OC)C2(Cl)C3=CCCC=C3C1(Cl)C(Cl)=C2Cl`, the TGI in the assay with HCT-15 colon is more than 100 µM; with SK-MEL-28 melanoma, more than 100 µM; in the assay with UO-31 renal, 69 µM; in the assay with A549 NSCLC, more than 100 µM; in the assay with NCI-H460 lung, more than 100 µM; with NCI-H23 lung it was 62.2 µM. This molecule also registered a TGI in the assay with CAKI-1 renal of 84.2 µM.
Regarding `O=C1CC23CCCCCCCCCCC2(C1)CC(=O)C3` (stereo not given), the TGI was more than 100 µM in the assay with HCT-15 colon; more than 100 µM in the assay on SK-MEL-28 melanoma; 61.2 µM with UO-31 renal; more than 100 µM in the assay with A549 NSCLC; more than 100 µM with NCI-H460 lung; more than 100 µM in the assay on NCI-H23 lung.
On to `COc1ccc(-c2ccc(CC(=O)O)cc2)cc1OC`, for which the concentration for total growth inhibition (TGI) with A498 renal, in the assay on SK-MEL-28 melanoma, in the assay with UO-31 renal, in the assay on A549 NSCLC, in the assay with NCI-H460 lung and in the assay on NCI-H23 lung was more than 100 µM in each case. The molecule also returned a TGI with CAKI-1 renal of more than 100 µM.
With `CC(=O)N1[C@H](C(=O)O)CS[C@H]1c1ccc(F)cc1`, the TGI with A498 renal, in the assay with HCT-15 colon, in the assay with SK-MEL-28 melanoma, with UO-31 renal, in the assay on A549 NSCLC and in the assay on NCI-H460 lung was more than 100 µM in each case. Further, the TGI in the assay on NCI-H23 lung and with CAKI-1 renal was more than 100 µM in each case.
Take `COc1cc2c(cc1OCCNC(=O)/C=C1\C[C@H]3C=Nc4cc(OCc5ccccc5)c(OC)cc4C(=O)N3C1)N=C[C@@H]1CCCN1C2=O`: the GI50 with HCT-15 colon was 37.4 µM; in the assay on SK-MEL-28 melanoma, 18.1 µM; with UO-31 renal, 22.9 µM; in the assay on A549 NSCLC it was 22.3 µM; in the assay with HS 578T breast it was 5.7 µM; in the assay on BT-549 breast, 17 µM. The GI50 is 13.6 µM in the assay on NCI-H460 lung, 9.26 µM in the assay on NCI-H23 lung and 32.3 µM in the assay with CAKI-1 renal. Also, the TGI with HCT-15 colon was more than 100 µM; with SK-MEL-28 melanoma, 46.3 µM; in the assay on UO-31 renal it was 66.1 µM; in the assay with A549 NSCLC, 52.3 µM; with HS 578T breast it was 25.2 µM; with BT-549 breast, more than 100 µM. For the same molecule, the figures for the TGI in the assay with NCI-H460 lung, in the assay on NCI-H23 lung and with CAKI-1 renal were 30.6 µM, 27 µM and more than 100 µM, respectively.
For the molecule `CC1CCC2C(C)C(=O)OC2C2(C)C(=O)C=CC12` (stereo not given), the TGI in the assay on HCT-15 colon, in the assay with SK-MEL-28 melanoma, with UO-31 renal, in the assay on A549 NSCLC, in the assay with HS 578T breast and in the assay with NCI-H460 lung was more than 10 µM in each case. Moreover, the TGI in the assay with NCI-H23 lung and with CAKI-1 renal was more than 10 µM throughout.
Take `COC(=O)C1CC(c2ccc(OC)c(OC)c2)OC1=O` (mixture of isomers): the total growth inhibition concentration (TGI) in the assay with A498 renal, with HCT-15 colon, in the assay on SK-MEL-28 melanoma, in the assay on UO-31 renal, in the assay on A549 NSCLC and in the assay on NCI-H460 lung was more than 100 µM each time. Also, the TGI in the assay with NCI-H23 lung and with CAKI-1 renal was more than 100 µM in each case.
For `C1=CC(=P(c2ccccc2)(c2ccccc2)c2ccccc2)C=C1`, the total growth inhibition concentration (TGI) is more than 100 µM in the assay on HCT-15 colon; 19.6 µM in the assay on SK-MEL-28 melanoma; 30.8 µM in the assay with UO-31 renal; 79.7 µM with A549 NSCLC; 26 µM in the assay with NCI-H460 lung; 54.3 µM with NCI-H23 lung. In addition, the TGI in the assay with CAKI-1 renal was 32.3 µM.
As to `COC(=O)C1C=CCC2CCCCC21N1CCCC1` (stereo not given), the TGI with A498 renal, in the assay with HCT-15 colon, in the assay on SK-MEL-28 melanoma, in the assay with UO-31 renal, in the assay with A549 NSCLC and with NCI-H460 lung was more than 100 µM in each case. Moreover, in the assay with CAKI-1 renal, the TGI was more than 100 µM.
With `Cc1nnc2n1N=C(c1ccccc1)C(c1ccccc1)S2` (stereo not given), the TGI in the assay with A498 renal is more than 100 µM; in the assay with HCT-15 colon, more than 100 µM; with UO-31 renal, more than 100 µM; in the assay on A549 NSCLC, more than 100 µM; with NCI-H460 lung it was more than 100 µM; with NCI-H23 lung it was 64 µM. The TGI in the assay with CAKI-1 renal is more than 100 µM.
In the case of `COc1cc(C)c2c(c1)CN1CN2Cc2cc(OC)cc(C)c21`, the TGI was more than 100 µM with HCT-15 colon; 85.5 µM in the assay on UO-31 renal; more than 100 µM with A549 NSCLC; more than 100 µM in the assay with NCI-H460 lung; more than 100 µM in the assay on NCI-H23 lung; more than 100 µM with CAKI-1 renal.
Regarding `CC(=O)Nc1ccc(C2CC(c3ccc([N+](=O)[O-])cc3)=Nc3ccccc3S2)cc1` (stereo not given), the TGI was 33.3 µM with A498 renal; 37.2 µM in the assay on HCT-15 colon; 38.4 µM in the assay with SK-MEL-28 melanoma; 27.8 µM with UO-31 renal; 56 µM with A549 NSCLC; 34.3 µM with NCI-H460 lung. Also, in the assay with CAKI-1 renal, the TGI amounted to 77.7 µM.
As to `CCN(CC)C(=S)SSC(C)C`, the GI50 is 22 µM with HCT-15 colon; 11.1 µM in the assay on SK-MEL-28 melanoma; 8.99 µM with UO-31 renal; 31.2 µM in the assay on A549 NSCLC; 0.936 µM with HS 578T breast; 13.4 µM in the assay with BT-549 breast. The GI50 was 16.4 µM with NCI-H23 lung and 5.99 µM in the assay with CAKI-1 renal. Moreover, the total growth inhibition concentration (TGI) in the assay with HCT-15 colon was 65.4 µM; in the assay on SK-MEL-28 melanoma it was 23.1 µM; in the assay on UO-31 renal it was 24.1 µM; in the assay on A549 NSCLC, more than 100 µM; with HS 578T breast it was 28.3 µM; in the assay with BT-549 breast it was 30.5 µM. In addition, the TGI in the assay with NCI-H23 lung came out at 36 µM; in the assay on CAKI-1 renal, 19.2 µM.

A word on the TGI: it is the concentration at which net growth stops. High values mean less potent growth arrest, low ones more potent growth arrest. In general, GI50 refers to the concentration that inhibits growth by half.
